The source made the active and inactive calls. The rule behind the calls is not given here.
Columns and labels:
[1] = target: T1, Histone deacetylase 1 (Homo sapiens, UniProt Q13547); assay: Inhibition of HDAC1
[2] = target: Histone deacetylase 4 (Homo sapiens, UniProt P56524, H976Y); assay: Inhibition of HDAC4GOF mutant expressed in Escherichia coli
[3] = target: T2, Histone deacetylase 4 (Homo sapiens, UniProt P56524); assay: Inhibition of wild type HDAC4 expressed in Escherichia coli
[4] = target: T3, Protein deacetylase HDAC6 (Homo sapiens, UniProt Q9UBN7); assay: Inhibition of HDAC6
T3 sequence (Q9UBN7 whole entry): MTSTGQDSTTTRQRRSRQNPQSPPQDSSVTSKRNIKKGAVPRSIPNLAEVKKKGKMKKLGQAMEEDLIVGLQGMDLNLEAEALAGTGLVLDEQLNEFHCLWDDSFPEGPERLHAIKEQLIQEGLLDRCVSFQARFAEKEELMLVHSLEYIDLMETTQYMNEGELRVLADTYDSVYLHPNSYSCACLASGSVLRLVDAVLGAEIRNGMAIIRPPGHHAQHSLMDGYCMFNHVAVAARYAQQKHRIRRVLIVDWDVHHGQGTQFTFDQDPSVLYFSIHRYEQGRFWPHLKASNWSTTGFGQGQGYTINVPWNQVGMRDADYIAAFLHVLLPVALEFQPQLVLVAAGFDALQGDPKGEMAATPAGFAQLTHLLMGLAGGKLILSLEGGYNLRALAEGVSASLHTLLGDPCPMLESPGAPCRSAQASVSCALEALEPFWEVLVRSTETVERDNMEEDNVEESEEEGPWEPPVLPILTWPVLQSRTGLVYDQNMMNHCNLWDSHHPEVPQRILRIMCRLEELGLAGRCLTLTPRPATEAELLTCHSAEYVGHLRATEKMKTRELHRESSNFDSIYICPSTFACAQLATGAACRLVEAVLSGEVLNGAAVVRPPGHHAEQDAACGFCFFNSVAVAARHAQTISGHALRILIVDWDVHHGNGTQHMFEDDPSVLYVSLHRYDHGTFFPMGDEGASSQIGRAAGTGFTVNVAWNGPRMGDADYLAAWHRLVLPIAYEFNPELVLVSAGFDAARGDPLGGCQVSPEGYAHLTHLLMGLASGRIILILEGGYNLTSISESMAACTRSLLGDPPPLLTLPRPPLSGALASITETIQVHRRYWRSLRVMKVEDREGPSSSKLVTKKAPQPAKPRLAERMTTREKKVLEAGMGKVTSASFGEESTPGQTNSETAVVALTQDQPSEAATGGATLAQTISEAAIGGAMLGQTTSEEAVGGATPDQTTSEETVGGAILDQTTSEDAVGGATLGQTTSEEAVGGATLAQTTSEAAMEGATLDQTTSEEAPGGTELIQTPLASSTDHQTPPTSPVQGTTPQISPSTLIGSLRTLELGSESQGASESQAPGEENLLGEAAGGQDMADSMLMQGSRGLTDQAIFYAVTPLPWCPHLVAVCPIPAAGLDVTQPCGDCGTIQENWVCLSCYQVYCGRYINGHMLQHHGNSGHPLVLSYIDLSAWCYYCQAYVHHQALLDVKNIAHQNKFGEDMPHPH

[5] = target: T4, Protein deacetylase HDAC6 (Homo sapiens) (UniProt Q9UBN7); assay: Inhibition of HDAC6 at 10 uM
T4 sequence (whole entry): T3 sequence (Q9UBN7 whole entry)

[6] = target: T1, Histone deacetylase 1; assay: Inhibition of HDAC1 at 10 uM
[7] = tested on: T5, Histone deacetylase 4 (Homo sapiens), P56524 [H976Y]; assay: Inhibition of HDAC4GOF mutant at 10 uM
T5 sequence (whole entry): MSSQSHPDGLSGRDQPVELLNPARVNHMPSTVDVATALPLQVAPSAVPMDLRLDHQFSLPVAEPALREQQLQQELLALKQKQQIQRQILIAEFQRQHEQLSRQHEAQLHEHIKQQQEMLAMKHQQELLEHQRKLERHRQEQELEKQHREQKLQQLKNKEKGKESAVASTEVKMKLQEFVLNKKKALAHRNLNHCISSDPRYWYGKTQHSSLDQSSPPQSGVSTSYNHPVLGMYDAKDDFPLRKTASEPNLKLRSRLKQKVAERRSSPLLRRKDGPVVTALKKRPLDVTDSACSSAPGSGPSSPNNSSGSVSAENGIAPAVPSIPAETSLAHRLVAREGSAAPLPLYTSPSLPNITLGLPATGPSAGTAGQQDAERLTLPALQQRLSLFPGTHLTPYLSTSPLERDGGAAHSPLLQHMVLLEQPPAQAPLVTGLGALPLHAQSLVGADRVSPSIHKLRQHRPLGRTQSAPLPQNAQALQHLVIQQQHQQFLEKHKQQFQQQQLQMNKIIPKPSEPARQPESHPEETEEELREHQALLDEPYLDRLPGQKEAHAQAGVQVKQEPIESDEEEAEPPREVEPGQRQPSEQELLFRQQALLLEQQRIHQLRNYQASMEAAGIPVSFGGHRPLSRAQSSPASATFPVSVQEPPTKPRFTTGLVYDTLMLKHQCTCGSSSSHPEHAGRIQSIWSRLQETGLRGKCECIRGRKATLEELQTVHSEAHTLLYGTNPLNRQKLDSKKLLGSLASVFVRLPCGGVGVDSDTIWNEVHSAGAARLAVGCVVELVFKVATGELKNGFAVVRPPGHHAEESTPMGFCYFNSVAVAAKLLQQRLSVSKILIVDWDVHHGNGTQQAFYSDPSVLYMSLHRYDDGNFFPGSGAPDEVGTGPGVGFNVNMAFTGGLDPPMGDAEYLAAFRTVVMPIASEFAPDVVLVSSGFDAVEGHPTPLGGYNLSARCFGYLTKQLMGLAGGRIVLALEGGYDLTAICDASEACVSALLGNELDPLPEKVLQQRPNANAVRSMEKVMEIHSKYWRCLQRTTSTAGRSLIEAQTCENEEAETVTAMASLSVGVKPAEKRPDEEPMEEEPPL

[8] = target: T6, Histone deacetylase 3 (Homo sapiens, UniProt O15379); assay: Inhibition of HDAC3 at 10 uM
T6 sequence (O15379 whole entry): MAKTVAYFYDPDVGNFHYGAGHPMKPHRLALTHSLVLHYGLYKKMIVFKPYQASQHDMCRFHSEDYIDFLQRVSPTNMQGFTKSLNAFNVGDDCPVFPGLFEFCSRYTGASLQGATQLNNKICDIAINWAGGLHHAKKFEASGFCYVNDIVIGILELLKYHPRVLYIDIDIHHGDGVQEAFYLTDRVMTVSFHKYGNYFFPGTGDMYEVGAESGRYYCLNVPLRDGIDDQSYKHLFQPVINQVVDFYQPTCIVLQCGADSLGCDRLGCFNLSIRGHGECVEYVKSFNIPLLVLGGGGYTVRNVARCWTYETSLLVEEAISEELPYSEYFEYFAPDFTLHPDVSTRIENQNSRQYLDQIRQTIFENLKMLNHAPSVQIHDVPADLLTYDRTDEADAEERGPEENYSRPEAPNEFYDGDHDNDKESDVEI

[9] = target: T2, Histone deacetylase 4; assay: Inhibition of wild type HDAC4 at 10 uM
[10] = target: T6, Histone deacetylase 3; assay: Inhibition of HDAC3

T2 sequence (P56524 whole entry): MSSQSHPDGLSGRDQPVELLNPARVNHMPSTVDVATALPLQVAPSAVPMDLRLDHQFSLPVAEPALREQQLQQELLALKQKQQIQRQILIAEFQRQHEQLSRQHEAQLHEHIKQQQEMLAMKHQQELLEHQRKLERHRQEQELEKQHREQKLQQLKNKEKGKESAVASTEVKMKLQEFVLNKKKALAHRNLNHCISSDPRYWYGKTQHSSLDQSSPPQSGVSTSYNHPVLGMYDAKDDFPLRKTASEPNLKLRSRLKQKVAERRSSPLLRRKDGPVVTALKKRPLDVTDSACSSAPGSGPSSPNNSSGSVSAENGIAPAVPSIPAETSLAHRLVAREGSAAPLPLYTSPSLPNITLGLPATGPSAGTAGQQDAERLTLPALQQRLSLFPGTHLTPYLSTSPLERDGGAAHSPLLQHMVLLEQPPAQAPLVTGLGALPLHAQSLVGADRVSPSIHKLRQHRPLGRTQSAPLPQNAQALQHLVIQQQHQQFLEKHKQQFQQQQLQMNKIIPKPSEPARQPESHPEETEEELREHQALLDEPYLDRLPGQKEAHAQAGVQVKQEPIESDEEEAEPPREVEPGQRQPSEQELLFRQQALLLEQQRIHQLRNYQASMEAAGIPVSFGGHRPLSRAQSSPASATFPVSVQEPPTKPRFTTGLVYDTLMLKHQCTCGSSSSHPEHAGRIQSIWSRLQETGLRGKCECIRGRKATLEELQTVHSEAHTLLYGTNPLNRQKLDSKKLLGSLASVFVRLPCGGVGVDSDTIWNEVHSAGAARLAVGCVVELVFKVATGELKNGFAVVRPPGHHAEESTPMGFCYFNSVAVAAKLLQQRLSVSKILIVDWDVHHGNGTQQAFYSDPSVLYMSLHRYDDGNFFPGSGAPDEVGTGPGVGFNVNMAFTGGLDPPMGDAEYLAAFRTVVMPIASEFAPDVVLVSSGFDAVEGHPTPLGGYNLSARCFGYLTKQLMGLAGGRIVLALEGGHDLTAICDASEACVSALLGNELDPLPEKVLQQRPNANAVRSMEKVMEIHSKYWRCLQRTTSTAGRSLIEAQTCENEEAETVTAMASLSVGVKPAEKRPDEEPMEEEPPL
T1 sequence (Q13547 whole entry): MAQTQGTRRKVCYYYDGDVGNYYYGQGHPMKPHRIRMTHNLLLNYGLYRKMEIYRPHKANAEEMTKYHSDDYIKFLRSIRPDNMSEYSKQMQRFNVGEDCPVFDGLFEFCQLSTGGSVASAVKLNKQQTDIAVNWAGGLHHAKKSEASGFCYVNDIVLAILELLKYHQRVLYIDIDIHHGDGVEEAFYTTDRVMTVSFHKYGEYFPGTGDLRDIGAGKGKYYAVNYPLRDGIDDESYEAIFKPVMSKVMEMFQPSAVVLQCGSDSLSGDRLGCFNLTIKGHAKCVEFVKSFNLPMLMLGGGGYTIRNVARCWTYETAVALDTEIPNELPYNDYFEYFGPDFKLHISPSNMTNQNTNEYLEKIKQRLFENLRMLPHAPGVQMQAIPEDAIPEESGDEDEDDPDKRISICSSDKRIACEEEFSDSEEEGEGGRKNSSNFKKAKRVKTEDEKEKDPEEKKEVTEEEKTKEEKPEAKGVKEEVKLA

SMILES	IC50 [1]	IC50 [2]	IC50 [3]	IC50 [4]	Activity [6]	Activity [7]	Activity [8]	IC50 [10]	also measured
CCNC(=O)c1ccc(C(=O)C(F)(F)F)s1	7100 nM	1000 nM	1700 nM	310 nM					
CCOC(=O)c1ccc(C(=O)C(F)(F)F)o1		3100 nM	2500 nM	550 nM			inactive		inhibition [6]: 48%
O=C(c1ccc(C(=O)C(F)(F)F)s1)N1CCc2ccccc21	2000 nM	300 nM	130 nM	200 nM				1700 nM	
O=C(NCC1CCCCC1)c1ccc(C(=O)C(F)(F)F)cc1				2500 nM	inactive		inactive		inhibition [7]: 31%; inhibition [9]: 32%
COc1ccc(COCc2ccc(C(=O)C(F)(F)F)s2)cc1		2700 nM	5500 nM	410 nM	inactive		inactive		
O=C(c1ccc(C(=O)N2CCc3ccccc32)s1)C(F)F	9700 nM	420 nM	7600 nM	15 nM					inhibition [8]: 42%
O=C(NCC1CCCCC1)c1cccc(C(=O)C(F)(F)F)c1				4200 nM	inactive	inactive	inactive		Activity [9]: inactive
C[C@H](NC(=O)c1ccc(C(=O)C(F)(F)F)s1)c1ccccc1	5300 nM	280 nM	170 nM	210 nM				9400 nM	
CCOC(=O)c1ccc(C(=O)C(F)(F)F)s1	5700 nM	350 nM	320 nM	550 nM				3500 nM	
COc1ccc(CNC(=O)c2ccc(C(=O)C(F)(F)C(F)(F)F)s2)cc1	4200 nM					inactive		2900 nM	Activity [5]: inactive; Activity [9]: inactive
C[C@@H](NC(=O)c1ccc(C(=O)C(F)(F)F)s1)c1ccccc1	320 nM	160 nM	76 nM	360 nM				230 nM	
CN(Cc1ccccc1)C(=O)c1cnc(C(=O)C(F)(F)F)s1		2200 nM	760 nM	1300 nM				7300 nM	inhibition [6]: 46%
O=C(NCC1CCCCC1)c1ccc(C(=O)C(F)(F)F)s1	2900 nM	350 nM	400 nM	460 nM				3100 nM	
CN(Cc1ccccc1)C(=O)c1cc(C(=O)C(F)(F)F)cs1		2500 nM	1700 nM	640 nM	inactive		inactive		
O=C(NCC1CCCCC1)c1cnc(C(=O)C(F)(F)F)s1		2900 nM	850 nM	1500 nM	inactive			7600 nM	
O=C(NCC1CCCCC1)c1cc(C(=O)C(F)(F)F)cs1		2400 nM	3300 nM	2000 nM			inactive		inhibition [6]: 40%
COc1ccc(CNC(=O)c2ccc(C(=O)C(F)(F)F)s2)cc1	210 nM	70 nM	180 nM	240 nM				120 nM	

Now from value to compound, other results behind:

IC50 [1]	IC50 [2]	IC50 [3]	IC50 [4]	Activity [6]	Activity [7]	Activity [8]	IC50 [10]	SMILES	also measured
				inactive	inactive	inactive		O=C(c1ccc(P(=O)(O)O)s1)N1CCc2ccccc21	Activity [5]: inactive; Activity [9]: inactive
			880 nM	inactive	inactive	inactive		O=C(c1ccc(C(=O)C(F)(F)F)[nH]1)N1CCc2ccccc21	inhibition [9]: 47%
880 nM	180 nM	330 nM	210 nM				1700 nM	O=C(NCCc1ccccc1)c1ccc(C(=O)C(F)(F)F)s1	
				inactive	inactive	inactive		CS(=O)(=O)c1ccc(C(=O)N2CCc3ccccc32)s1	inhibition [5]: 47%; Activity [9]: inactive
				inactive	inactive	inactive		CN(Cc1ccccc1)C(=O)c1ccc(C(O)C(F)(F)F)s1 (centres undefined)	Activity [5]: inactive; Activity [9]: inactive
				inactive	inactive	inactive		O=C(c1ccc(B(O)O)s1)N1CCc2ccccc21	inhibition [5]: 42%; Activity [9]: inactive
		9400 nM	2500 nM	inactive	inactive	inactive		CN(Cc1ccccc1)S(=O)(=O)c1csc(C(=O)C(F)(F)F)c1	
1800 nM	170 nM	510 nM	230 nM				1200 nM	CN(Cc1ccccc1)C(=O)c1ccc(C(=O)C(F)(F)F)s1	
3100 nM	1100 nM	970 nM	490 nM				4600 nM	CN(Cc1ccccc1)Cc1ccc(C(=O)C(F)(F)F)s1	
	3500 nM	3700 nM	840 nM	inactive		inactive		C[C@@H](NCc1ccc(C(=O)C(F)(F)F)s1)c1ccccc1	
				inactive	inactive	inactive		O=C(c1ccc(C2(C(F)(F)F)OCCO2)s1)N1CCc2ccccc21	Activity [5]: inactive; Activity [9]: inactive
	1200 nM	340 nM	730 nM	inactive		inactive		CN(Cc1ccccc1)S(=O)(=O)c1ccc(C(=O)C(F)(F)F)s1	
			6900 nM	inactive	inactive	inactive		CC(=O)c1ccc(C(=O)N[C@H](C)c2ccccc2)s1	Activity [9]: inactive
				inactive	inactive	inactive		CN(Cc1ccc2nccnc2c1)C(=O)c1ccc(C(=O)O)s1	Activity [5]: inactive; Activity [9]: inactive

Reference: ChEMBL document CHEMBL1150306, “2-Trifluoroacetylthiophenes, a novel series of potent and selective class II histone deacetylase inhibitors” (Bioorg Med Chem Lett, 2008)
